The values below come from PubChem BioAssay AID743476 (The Scripps Research Institute Molecular Screening Center, 2014).

The test deals with CCHF-vOTU. The test can be described thus: PubChem AID 743476. The following applies: Recombinant CCHFV vOTU, PEP-AMC fluorescence cleavage, with PEP-AMC substrate, active compounds read high.

Activity calls are given as the source filed them. The rule behind the calls is not given here.

As usually defined, the inhibition is the drop in the measured response relative to a control, in per cent. In the case of `NS(=O)(=O)c1ccc(NC2=CC(=O)C(=O)c3ccccc32)cc1`, the inhibition (Assay 1, at 4.85 µM) is 6.01% (inactive) and the inhibition (Assay 2, at 4.85 µM) is 30.6%.

Take `COc1cc(C(=O)c2nccc3cc(OC)c(OC)cc23)c([N+](=O)[O-])cc1OC`: the inhibition was 6.05% (inactive) (Assay 1, at 1.05 µM); 15% (inactive) (Assay 2, at 1.05 µM); 17.8% (inactive) (Assay 3, at 2.1 µM).

For `S=C(Nc1ccc(Cl)cc1)Nc1cccc2cnccc12`, the inhibition is -17.9% (inactive) (Assay 1, at 6.44 µM); 5.81% (inactive) (Assay 2, at 6.44 µM); 7.7% (inactive) (Assay 3, at 12.88 µM).

Turning to `O=C(NC1=C(NC2CCS(=O)(=O)C2)C(=O)c2ccccc2C1=O)c1ccccc1` (configuration not stated), the inhibition runs as follows: (Assay 1, at 3.9 µM) 4.88% (inactive); (Assay 2, at 3.9 µM) 22.6%.

For `CC1CCCC(NC(=O)COC(=O)c2ccc([N+](=O)[O-])s2)C1C` (configuration not stated), the inhibition reads like this: (Assay 1, at 9.22 µM) 37.2%; (Assay 2, at 9.22 µM) 8.38% (inactive); (Assay 3, at 18.44 µM) 13.5% (inactive).

Turning to `CN(C1=C(NC(=O)c2ccccc2)C(=O)c2ccccc2C1=O)C1CCS(=O)(=O)C1` (configuration not stated), the inhibition runs as follows: (Assay 1, at 2.43 µM) 54.2%; (Assay 2, at 2.43 µM) 22.7%.

In the case of `Cc1cnc(C2OCCO2)c2cccc(N)c12`, the inhibition by setting is: (Assay 1, at 2.56 µM) 16.2% (inactive); (Assay 2, at 2.56 µM) 0.6% (inactive); (Assay 3, at 5.12 µM) 1% (inactive).

`O=S(=O)(Nc1cc2nc3ccccc3nc2n1Cc1ccccc1)c1ccc(Cl)cc1`: the inhibition (Assay 1, at 2.57 µM) was 72.3%; the inhibition (Assay 2, at 2.57 µM) was -112% (inactive); the inhibition (Assay 3, at 5.14 µM) was 47.9% (inactive).

For the compound `O=C1Cc2ccccc2C(=O)N1`, the inhibition (Assay 1, at 0.4 µM) was 38.8% and the inhibition (Assay 2, at 0.4 µM) was 54.3%.

For `O=C(COC(=O)c1ccc([N+](=O)[O-])s1)Nc1ccc(F)cc1`, the inhibition by setting is: (Assay 1, at 7.8 µM) 9.26% (inactive); (Assay 2, at 7.8 µM) 9.2% (inactive); (Assay 3, at 15.6 µM) 17.4% (inactive).

As to `CC(=O)c1ccc(NC(=S)Nc2cccc3cnccc23)cc1`, the inhibition by setting is: (Assay 1, at 6.84 µM) 0.13% (inactive); (Assay 2, at 6.84 µM) 3.01% (inactive); (Assay 3, at 13.68 µM) 6.6% (inactive).

Turning to `CCn1nc(/C=C/c2ccccc2)nc2c(=O)n(C)c(=O)nc1-2`, the inhibition (Assay 1, at 0.28 µM) was 58.4% and the inhibition (Assay 2, at 0.28 µM) was 91.9%.

As to `CC1(C)C=C2C(=NN(c3ccccc3)C(N)=C2C#N)CO1`, the inhibition reads like this: (Assay 1, at 1.83 µM) -4.71% (inactive); (Assay 2, at 1.83 µM) 23.4%.

With `Cn1nc(-c2ccccn2)nc2c(=O)n(C)c(=O)nc1-2`, the inhibition is, setting by setting: (Assay 1, at 0.37 µM) 63.3%; (Assay 2, at 0.37 µM) 56.2%.

With `COc1ccc2noc3c2c1C(=O)c1ccccc1-3`, the inhibition was 16.5% (inactive) (Assay 1, at 3.08 µM); 15.2% (inactive) (Assay 2, at 3.08 µM); 64.3% (Assay 3, at 6.16 µM).

`Cc1c(Cl)cnc(NC(=O)COC(=O)c2ccc([N+](=O)[O-])s2)c1Cl`: the inhibition is, setting by setting: (Assay 1, at 7.08 µM) 9.06% (inactive); (Assay 2, at 7.08 µM) 5.86% (inactive); (Assay 3, at 14.16 µM) 14.2% (inactive).

As to `COc1cc(NC(=O)COC(=O)c2ccc([N+](=O)[O-])s2)cc(OC)c1OC`, the inhibition runs as follows: (Assay 1, at 6.6 µM) 7.4% (inactive); (Assay 2, at 6.6 µM) 4.53% (inactive); (Assay 3, at 13.2 µM) 11.9% (inactive).

As for `O=C1Cc2ccccc2C(=O)N1CCc1ccccc1`, the inhibition was 12.7% (inactive) (Assay 1, at 1.14 µM) and 57.5% (Assay 2, at 1.14 µM).

With `COc1cc(NCCCC(C)N)c2ncccc2c1` (configuration not stated), the inhibition was 25.6% (Assay 1, at 2.52 µM); 0.7% (inactive) (Assay 2, at 2.52 µM); -1.2% (inactive) (Assay 3, at 5.04 µM).

On to `O=C(NC1=CC(=O)c2ccccc2C1=O)c1ccccc1`, for which the inhibition is, setting by setting: (Assay 1, at 3.85 µM) 5.25% (inactive); (Assay 2, at 3.85 µM) 9.67% (inactive); (Assay 3, at 7.7 µM) 16.4% (inactive).

Take `O=C(/C=C/c1ccc(O)cc1)c1ccc(NC2=C(N3CCCCC3)C(=O)c3ccccc3C2=O)cc1`: the inhibition is, setting by setting: (Assay 1, at 3.35 µM) 14.3% (inactive); (Assay 2, at 3.35 µM) 16.3% (inactive); (Assay 3, at 6.7 µM) 33.6%.

As to `O=C(COC(=O)c1ccc([N+](=O)[O-])s1)Nc1ccccc1`, the inhibition was 8.51% (inactive) (Assay 2, at 10.31 µM) and 4.9% (inactive) (Assay 3, at 20.62 µM).
